Assay results: patent publication US20090137577A1, “HETEROCYCLIC COMPOUNDS” (Pfizer Inc., priority 2007, published 2009)

Target: T1, mGluR2 receptor (metabotropic glutamate receptor 2) (Homo sapiens, UniProt Q14416)
T1 construct: expressed in transfected cells
Experiment: mGluR2 potentiator screen (FLIPR, EC10-EC20 glutamate challenge);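 further: HEK cells stably expressing human mGluR2 with GL15 G protein, Fluo-4 calcium fluorescence read on FLIPR, compounds added before an EC10-EC20 glutamate challenge to detect potentiation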
Assay type: cell-based
Details: geometric mean; read-out: mGluR 2 EC50 (geometric mean)

T1 sequence (Q14416 19-872, species assumed): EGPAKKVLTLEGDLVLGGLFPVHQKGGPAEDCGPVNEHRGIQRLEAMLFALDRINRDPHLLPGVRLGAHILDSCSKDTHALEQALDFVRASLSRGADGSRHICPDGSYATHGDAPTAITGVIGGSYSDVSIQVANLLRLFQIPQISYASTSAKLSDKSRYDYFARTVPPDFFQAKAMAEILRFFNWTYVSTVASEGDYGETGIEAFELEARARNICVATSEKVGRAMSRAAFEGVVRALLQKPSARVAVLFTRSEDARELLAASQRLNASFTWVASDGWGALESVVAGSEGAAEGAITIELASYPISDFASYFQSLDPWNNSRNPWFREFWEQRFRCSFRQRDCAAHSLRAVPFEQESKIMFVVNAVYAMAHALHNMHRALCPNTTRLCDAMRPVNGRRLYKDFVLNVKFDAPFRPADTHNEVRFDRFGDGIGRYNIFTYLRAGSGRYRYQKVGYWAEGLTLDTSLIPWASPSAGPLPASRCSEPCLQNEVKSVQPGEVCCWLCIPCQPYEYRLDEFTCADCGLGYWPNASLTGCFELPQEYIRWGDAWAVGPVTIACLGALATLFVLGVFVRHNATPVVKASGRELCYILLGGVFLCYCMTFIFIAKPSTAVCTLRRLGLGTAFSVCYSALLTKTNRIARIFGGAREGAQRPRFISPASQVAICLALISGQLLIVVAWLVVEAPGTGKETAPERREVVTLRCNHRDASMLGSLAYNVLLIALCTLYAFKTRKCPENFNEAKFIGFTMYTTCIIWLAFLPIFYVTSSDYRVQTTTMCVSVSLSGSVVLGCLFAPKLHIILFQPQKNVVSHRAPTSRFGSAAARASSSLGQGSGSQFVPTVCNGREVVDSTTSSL

Structure (SMILES)	EC50 [nM]
COc1ccc(F)c(-c2ccc(CN3C[C@@H](C)OC3=O)cc2)c1 [Example 240]	120
CC1CN(Cc2ccc(OCc3nc4ccccc4n3C(C)C)cc2)C(=O)O1 (stereo not shown) [Example 97]	823
CC(Oc1ccc(CN2C(=O)O[C@H](c3ccccc3)[C@@H]2C)cc1)c1ccccc1 (stereo partly shown) [Example 50]	263
CC(=O)c1ccc(-c2ccc(CN3C[C@@H](C)OC3=O)cc2)cc1 [Example 171]	60.2
CC1CN(Cc2ccc(OCc3ccccc3F)cc2)C(=O)O1 (stereo not shown) [Example 112]	138
CC(Oc1ccc(CN2CC(c3ccccc3)OC2=O)cc1)c1ccccc1 (stereo not shown) [Example 39]	244
Cc1ccc(Cl)cc1-c1ccc(CN2C[C@@H](C)OC2=O)cc1 [Example 233]	45.6
Cc1cc(CN2C[C@@H](C)OC2=O)ccc1OCc1ccc(F)cc1C(F)(F)F [Example 285, (5R)-3-(4-{[4-fluoro-2-(trifluoromethyl)benzyl]oxy}-3-methylbenzyl)-5-methyl-1,3-oxazolidin-2-one]	217
CC(C)Oc1ccc(CN2CC(c3ccccc3)OC2=O)cc1 (stereo not shown) [Example 44]	572
C[C@@H]1CN(Cc2ccc(-c3cc(F)cc(F)c3)cc2)C(=O)O1 [Example 246]	445
CC1CN(Cc2ccc(OCc3cccc(C#N)c3)cc2)C(=O)O1 (stereo not shown) [Example 129]	155
CC(Oc1ccc(CN2CC(c3ccncc3)OC2=O)cc1)C1CCCCC1 (stereo not shown) [Example 209]	639
CC(C)CN1CCN(Cc2ccc(OC(C)C3CCCCC3)cc2)C(=O)C1 (stereo not shown) [Example 200]	191
C[C@@H]1CN(Cc2ccc(-c3cc4ccccc4o3)cc2)C(=O)O1 [Example 157]	< 32.5
C[C@@H]1CN(Cc2ccc(-c3ccc(Cl)cc3Cl)nc2)C(=O)O1 [Example 269]	518
Cc1cc(CN2CC(c3cccnc3)OC2=O)ccc1OCC1CCCCC1 (stereo not shown) [Example 250, 3-[4-(Cyclohexylmethoxy)-3-methylbenzyl]-5-pyridin-3-yl-1,3-oxazolidin-2-one]	1870
Cc1cc(C)n(-c2cccc(-c3ccc(CN4C[C@@H](C)OC4=O)cc3)c2)n1 [Example 199]	804
Cc1ccc(Cl)cc1-c1ccc(CN2C[C@@H](C)OC2=O)cn1 [Example 259]	1460
C[C@@H]1CN(Cc2ccc(-c3cccc(F)c3F)cc2)C(=O)O1 [Example 244]	97.2
C[C@@H]1CN(Cc2ccc(O[C@@H](C)c3ccccc3)cc2)C(=O)O1 [Example 69]	173
C[C@@H]1CN(Cc2ccc(-c3ccc4c(c3)OCCO4)cc2)C(=O)O1 [Example 198]	42.2
CC1CCCC1N1CCN(Cc2ccc(OC(C)C3CCCCC3)cc2)C(=O)C1 (stereo not shown) [Example 225]	638
C[C@@H]1CN(Cc2ccc(/C=C/c3ccccc3)cc2)C(=O)O1 [Example 317, (5R)-5-methyl-3-{4-[(E)-2-phenylvinyl]benzyl}-1,3-oxazolidin-2-one]	36.4
CC(Oc1ccc(CN2CCN(CC(C)(C)C)CC2=O)cc1)C1CCCCC1 (stereo not shown) [Example 223]	584
Cc1cc(CN2C[C@@H](C)OC2=O)cc(C)c1OCc1ccccc1 [Example 184]	964
C[C@H](Oc1ccc(CN2C[C@H](C)OC2=O)cc1)c1ccccc1 [Example 70]	209

Structure (SMILES)	EC50 [nM]
COc1ccc(F)cc1-c1ccc(CN2C[C@@H](C)OC2=O)cc1 [Example 166]	24.6
COc1cccc(OC)c1-c1ccc(CN2C[C@@H](C)OC2=O)cc1 [Example 161]	227
COc1ccc(-c2ccc(CN3C[C@@H](C)OC3=O)cc2)cc1F [Example 170]	34.2
CC(Oc1ccc(CN2CCN(CCCC(F)(F)F)CC2=O)cc1)C1CCCCC1 (stereo not shown) [Example 218]	681
O=C1OC(c2cccnc2)CN1Cc1ccc(-c2ccc(OC(F)(F)F)cc2F)cc1 (stereo not shown) [Example 303, 3-{[2′-Fluoro-4′-(trifluoromethoxy)biphenyl-4-yl]methyl}-5-pyridin-3-yl-1,3-oxazolidin-2-one]	77.7
C[C@@H]1CN(Cc2ccc(-c3ccc(C#N)cc3)cc2)C(=O)O1 [Example 191]	166
CC1CN(Cc2ccc(OCCOc3ccccc3)cc2)C(=O)O1 (stereo not shown) [Example 121]	434
O=C1OC[C@@H]2CCCC[C@@H]2N1Cc1ccc(OCc2ccccc2)cc1 [Example 4]	647
COc1ccccc1COc1ccc(CN2CC(C)OC2=O)cc1 (stereo not shown) [Example 118]	89.4
CCN(C)CC1CN(Cc2ccc(-c3ccc(F)cc3F)cc2)C(=O)O1 (stereo not shown) [Example 304, 3-[(2′,4′-difluorobiphenyl-4-yl)methyl]-5-{[ethyl(methyl)amino]methyl}-1,3-oxazolidin-2-one]	581
CC1CN(Cc2ccc(OCCc3ccc(C#N)cc3)cc2)C(=O)O1 (stereo not shown) [Example 109]	219
C[C@@H]1CN(Cc2ccc(-c3ccc(C(F)(F)F)cc3F)nc2)C(=O)O1 [Example 258]	205
C[C@@H]1CN(Cc2ccc(COc3ccc(F)cc3F)cc2)C(=O)O1 [Example 305, (5R)-3-{4-[(2,4-Difluorophenoxy)methyl]benzyl}-5-methyl-1,3-oxazolidin-2-one]	416
C[C@@H]1CN(Cc2ccc(CN3CCc4cc(Cl)ccc43)cc2)C(=O)O1 [Example 300, (5R)-3-{4-[(5-Chloro-2,3-dihydro-1H-indol-1-yl)methyl]benzyl}-5-methyl-1,3-oxazolidin-2-one]	94.5
CC1CN(Cc2ccc(O[C@H](C)c3ccccc3)cc2)C(=O)O1 (stereo partly shown) [Example 139]	79.7
CCOC(=O)c1cccc(-c2ccc(CN3C[C@@H](C)OC3=O)cc2)c1 [Example 169]	49
CC[C@H](C)COc1ccc(CN2CC(C)OC2=O)cc1 (stereo partly shown) [Example 100]	55.9
C[C@@H]1CN(Cc2ccc(-c3ccc(C(F)(F)F)cc3)nc2)C(=O)O1 [Example 265]	1100
C[C@H]1CN(Cc2ccc(-c3ccc(C(F)(F)F)cc3)cc2)C(=O)O1 [Example 63, (5S)-5-methyl-3-{[4′-(trifluoromethyl)biphenyl-4-yl]methyl}-1,3-oxazolidin-2-one]	141
O=C1OC(c2cccnc2)CN1Cc1ccc(-c2ccc(F)cc2F)cc1 (stereo not shown) [Example 302, 3-[(2′,4′-Difluorobiphenyl-4-yl)methyl]-5-pyridin-3-yl-1,3-oxazolidin-2-one]	78.9
CC1CN(Cc2ccc(O[C@H]3C[C@H]4CC[C@@H]3C4)cc2)C(=O)O1 (stereo partly shown) [Example 123]	22.6
C[C@@H]1CN(Cc2ccc(CCc3ccccc3)cc2)C(=O)O1 [Example 318, (5R)-5-methyl-3-[4-(2-phenylethyl)benzyl]-1,3-oxazolidin-2-one]	111
CC(Oc1ccc(CN2C(=O)OC[C@@H]3CCCC[C@@H]32)cc1)c1ccccc1 (stereo partly shown) [Example 35]	884
CCCOc1ccc(CN2CC(c3ccccc3)OC2=O)cc1 (stereo not shown) [Example 3]	361
CC(C)COc1ccc(CN2C(=O)OC[C@H]3CCCC[C@H]32)cc1 [Example 2]	637
O=C1OC(c2ccccc2)CN1Cc1ccc(OCC2CCCCC2)cc1 (stereo not shown) [Example 7]	220

Structure (SMILES)	EC50 [nM]
C[C@@H]1CN(Cc2ccc(OCCCOc3ccc(F)cc3)nc2)C(=O)O1 [Example 229, (5R)-3-({6-[3-(4-fluorophenoxy)propoxy]pyridin-3-yl}methyl)-5-methyl-1,3-oxazolidin-2-one]	757
COc1ccc(CCCOc2ccc(CN3CC(C)OC3=O)cc2)cc1 (stereo not shown) [Example 98]	7.07
COc1ccc(-c2ccc(CN3C[C@@H](C)OC3=O)cn2)c(F)c1F [Example 262]	363
C[C@@H]1CN(Cc2ccc(-c3ccc(C(F)(F)F)cc3C(F)(F)F)cc2)C(=O)O1 [Example 275]	47.4
C[C@@H]1CN(Cc2ccc(-c3ccc(N4CCOCC4)nc3)cc2)C(=O)O1 [Example 154]	1240
CC(C)COc1ccc(CN2CC(C)OC2=O)cc1 (stereo not shown) [Example 20]	979
C[C@@H]1CN(Cc2ccc(OCCC3CCCCC3)c(F)c2)C(=O)O1 [Example 241, (5R)-3-[4-(2-cyclohexylethoxy)-3-fluorobenzyl]-5-methyl-1,3-oxazolidin-2-one]	418
CC(C)N1Cc2ccc(-c3ccc(CN4C[C@@H](C)OC4=O)cc3)cc2C1 [Example 174]	1620
COc1ccc(C(C)C)cc1-c1ccc(CN2C[C@@H](C)OC2=O)cc1 [Example 156]	< 16.2
CCOc1cccc(COc2ccc(CN3CC(C)OC3=O)cc2)c1 (stereo not shown) [Example 138]	87.3
COc1ccc(-c2ccc(CN3C[C@@H](C)OC3=O)cc2)cc1OC [Example 190]	676
CC(Oc1ccc(CN2CC(C)(C)COC2=O)cc1)c1ccccc1 (stereo not shown) [Example 45]	213
C[C@@H]1CN(Cc2ccc(-c3ccc(Cl)cc3F)cc2)C(=O)O1 [Example 256]	< 39.8
Cc1ccc(C(C)Oc2ccc(CN3CC(C)OC3=O)cc2)cc1 (stereo not shown) [Example 125]	24.1
CC1CN(Cc2ccc(OCCc3cccc(F)c3)cc2)C(=O)O1 (stereo not shown) [Example 101]	188
C[C@H]1[C@@H](c2ccccc2)OC(=O)N1Cc1ccc(OCC2CCCCC2)cc1 [Example 27]	1140
CC1CN(Cc2ccc(OC3CCc4ccccc43)cc2)C(=O)O1 (stereo not shown) [Example 140]	85.8
COc1cc(F)ccc1-c1ccc(CN2C[C@@H](C)OC2=O)cc1 [Example 239]	< 105
CC(C)Oc1ccc(-c2ccc(CN3C[C@@H](C)OC3=O)cc2)c(Cl)c1 [Example 280]	< 15.4
C[C@@H]1CN(Cc2ccc(OCc3ccc(C(F)(F)F)cc3F)c(F)c2)C(=O)O1 [Example 228, (5R)-3-(3-fluoro-4-{[2-fluoro-4-(trifluoromethyl)benzyl]oxy}benzyl)-5-methyl-1,3-oxazolidin-2-one]	870
C[C@@H]1CN(Cc2ccc(-c3ccc(N4CCCC4)nc3)cc2)C(=O)O1 [Example 158]	151
C[C@@H]1CN(Cc2ccc(-c3ccc(F)cc3F)c(F)c2)C(=O)O1 [Example 288]	36.9
COc1ccc(F)c(-c2ccc(CN3C[C@@H](C)OC3=O)cn2)c1 [Example 260]	858
CC(Oc1ccc(CN2CC(c3ccccc3)OC2=O)cc1)C1CCCCC1 (stereo not shown) [Example 38]	127
